Test results from ChEMBL document CHEMBL1201862, “PubChem BioAssay data set” (2004).
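Method: 48-hour compound exposure of cells in 96-well plates, five concentrations, linear interpolation of endpoints. The concentration for 50% growth inhibition is given as GI50.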 Activity calls are given as the source filed them. Rule as the data show it: active = GI50 up to about 1.1 µM and inactive = higher.

Tests used:
Experiment in all cases: inhibition of tumour cell growth, NCI panel, 48 h
KM-20L2 = tested on: KM-20L2
SNB-78 = tested on: SNB-78
LXFL 529 = tested on: LXFL 529
DMS-114 = tested on: DMS-114
HOP-18 = tested on: HOP-18
M19-MEL = tested on: M19-MEL
DMS-273 = tested on: DMS-273
XF498 = tested on: XF498
RXF 631 = tested on: RXF 631

Measured: GI50

CN(C)c1ccc(/C=C/c2cc[n+](C)c3ccccc23)cc1
inactive: KM-20L2 3.04 µM | SNB-78 7.59 µM | LXFL 529 1.23 µM | DMS-114 2.3 µM | HOP-18 3.47 µM | M19-MEL 1.44 µM | DMS-273 2.39 µM

Cc1cc2c(C)n(Cc3ccc(Cl)cc3Cl)nc2c(C#N)c1C
inactive: KM-20L2 36.5 µM | SNB-78 24.4 µM | LXFL 529 59.6 µM | DMS-114 36.4 µM | HOP-18 40.8 µM | XF498 15.8 µM | M19-MEL 73.8 µM | DMS-273 50.8 µM

O=C1c2ccccc2N2OC3(N4CCOCC4)CCCC3C12c1ccccc1 (configuration not stated)
inactive: KM-20L2 > 100 µM | SNB-78 > 100 µM | LXFL 529 > 100 µM | DMS-114 > 100 µM | HOP-18 > 100 µM | XF498 > 100 µM | M19-MEL > 100 µM | DMS-273 > 100 µM

Clc1cccc(C2SCc3nc4ccccc4n32)c1 (configuration not stated)
inactive: SNB-78 22.1 µM | LXFL 529 19.9 µM | HOP-18 18.5 µM | M19-MEL 19.4 µM

COc1ccc(OC)c(NC(=O)C(=O)C(C(C)=O)c2nc3ccc(Cl)cc3nc2O)c1 (configuration not stated)
inactive: KM-20L2 > 50 µM | SNB-78 > 50 µM | LXFL 529 > 50 µM | DMS-114 > 50 µM | HOP-18 45.2 µM | RXF 631 > 50 µM | XF498 > 50 µM | M19-MEL > 50 µM | DMS-273 > 50 µM

COC(=O)/C=C(C)/C=C/C1OC(C)OCC1O (configuration not stated)
inactive: KM-20L2 > 100 µM | SNB-78 > 100 µM | LXFL 529 > 100 µM | DMS-114 > 100 µM | M19-MEL > 100 µM | DMS-273 > 100 µM

COC(=O)C(=O)C(C(=O)C(=O)Nc1cc([N+](=O)[O-])ccc1[N+](=O)[O-])c1nc2ccc(C(=O)c3ccccc3)cc2nc1O (configuration not stated)
inactive: SNB-78 19.2 µM | LXFL 529 23.4 µM | DMS-114 23.2 µM | HOP-18 8.02 µM | RXF 631 49.3 µM | XF498 3.36 µM | M19-MEL 28.4 µM | DMS-273 22.4 µM

Nc1nc2c(ncn2Cc2ccccc2CCO)c(=O)[nH]1
inactive: KM-20L2 > 100 µM | LXFL 529 > 100 µM | DMS-114 > 100 µM | RXF 631 > 100 µM | XF498 > 100 µM | M19-MEL > 100 µM | DMS-273 > 100 µM

Oc1nc2cc(Cl)ccc2nc1/C(=N\Nc1ccccc1)C(O)c1ccc(Cl)c(Cl)c1 (configuration not stated)
inactive: KM-20L2 > 100 µM | SNB-78 > 100 µM | LXFL 529 > 100 µM | DMS-114 > 100 µM | RXF 631 > 100 µM | M19-MEL > 100 µM | DMS-273 > 100 µM

Nc1ncnc2c1sc(=S)n2-c1ccccc1
inactive: KM-20L2 > 100 µM | SNB-78 > 100 µM | LXFL 529 > 100 µM | DMS-114 > 100 µM | HOP-18 > 100 µM | XF498 > 100 µM | M19-MEL > 100 µM | DMS-273 > 100 µM

N#Cc1cc([N+](=O)[O-])ccc1NC(=O)C(F)(F)F
inactive: KM-20L2 > 74.5 µM | SNB-78 > 100 µM | LXFL 529 > 100 µM | DMS-114 > 40.8 µM | HOP-18 > 85.9 µM | XF498 > 100 µM | M19-MEL > 100 µM | DMS-273 > 100 µM

CCN(CC)c1ccc(/N=N/c2ccc(-c3nc4cccn(C)c-4n3)cc2)cc1
inactive: KM-20L2 5.32 µM | SNB-78 16.7 µM | LXFL 529 3.95 µM | DMS-114 3.61 µM | HOP-18 40.1 µM | RXF 631 3.41 µM | XF498 14.1 µM | M19-MEL 5.38 µM | DMS-273 3.18 µM

COC(=O)/C(=N/NC(C)(C)C)C(C(=O)C=C(C)C)C(=O)C(=O)Nc1ccc(Cl)cc1C (configuration not stated)
inactive: KM-20L2 > 100 µM | SNB-78 > 10 µM | LXFL 529 > 100 µM | DMS-114 > 100 µM | XF498 > 100 µM | M19-MEL > 100 µM

COc1ccc(C2Oc3c(c(O)cc4c3[C@H](c3ccc(O)cc3O)[C@H](O)C(c3ccc(O)c(O)c3)O4)C[C@@H]2O)cc1O (some centres not stated)
inactive: KM-20L2 > 100 µM | SNB-78 > 100 µM | LXFL 529 > 100 µM | DMS-114 > 100 µM | HOP-18 > 100 µM | M19-MEL > 100 µM | DMS-273 > 100 µM
